According to the NIST ThermoML archive (doi:10.1016/j.jct.2013.02.014):
± gives the expanded uncertainty stated by the source.

Conditions: Liquid, Falling or rolling sphere viscometry

CCCCn1cc[n+](C)c1C.O=S(=O)([N-]S(=O)(=O)C(F)(F)F)C(F)(F)F
viscosity (313.15 K, 10000 kPa): 55.9 ± 5.7 mPa·s
viscosity (313.15 K, 15000 kPa): 59.5 ± 6.1 mPa·s
viscosity (313.15 K, 25000 kPa): 67.3 ± 6.9 mPa·s
viscosity (313.15 K, 50000 kPa): 90.7 ± 9.5 mPa·s
viscosity (313.15 K, 75000 kPa): 120.9 ± 13 mPa·s
viscosity (313.15 K, 100000 kPa): 159.8 ± 17 mPa·s
viscosity (313.15 K, 125000 kPa): 210.1 ± 24 mPa·s
viscosity (313.15 K, 150000 kPa): 275 ± 32 mPa·s
viscosity (343.15 K, 10000 kPa): 19.5 ± 2.2 mPa·s
viscosity (343.15 K, 15000 kPa): 20.5 ± 2.3 mPa·s
viscosity (343.15 K, 25000 kPa): 22.7 ± 2.5 mPa·s
viscosity (343.15 K, 50000 kPa): 28.8 ± 3.3 mPa·s
viscosity (343.15 K, 75000 kPa): 36.3 ± 4.2 mPa·s
viscosity (343.15 K, 100000 kPa): 45.5 ± 5.4 mPa·s
viscosity (343.15 K, 125000 kPa): 56.9 ± 6.8 mPa·s
viscosity (343.15 K, 150000 kPa): 70.9 ± 8.7 mPa·s
viscosity (363.15 K, 10000 kPa): 12.4 ± 1.3 mPa·s
viscosity (363.15 K, 15000 kPa): 13 ± 1.4 mPa·s
viscosity (363.15 K, 25000 kPa): 14.3 ± 1.5 mPa·s
viscosity (363.15 K, 50000 kPa): 17.9 ± 1.9 mPa·s
viscosity (363.15 K, 75000 kPa): 22.1 ± 2.3 mPa·s
viscosity (363.15 K, 100000 kPa): 26.9 ± 2.9 mPa·s
viscosity (363.15 K, 125000 kPa): 32.4 ± 3.5 mPa·s
viscosity (363.15 K, 150000 kPa): 38.7 ± 4.2 mPa·s
